According to patent US12447117B2, “Composition and method of enhancing skin barrier using the same” (AMOREPACIFIC CORPORATION, priority 2018, dated 2025):

Experiments:
[1] = tested on: KRT10 (keratin 10) gene expression in normal human epidermal keratinocytes (NHEK); test: Expression level of keratinocyte differentiation marker KRT10 in UVB-irradiated NHEK (TAQMAN real-time PCR); format: cell-based; settings: UVB 25 mJ/cm^2, 10 nM compound, harvested on fourth day of culture, versus UV-irradiated cells (FIG. 1)
Description: (§1) Normal human epidermal keratinocytes (NHEK) were cultured in a 6-well plate incubator. 24 hours later, the normal human epidermal keratinocytes (NHEK) were cultured by replacing it with phosphate-buffered saline (PBS) and irradiating it with UVB (25 mJ/cm^2) and adding 10 nM of a compound represented by Chemical Formula 1-1 (Cayman Chemical) to the NHEK culture medium. On the fourth day of the culture, cells were harvested to separate RNA and synthesize cDNA through RT-PCR (a reverse transcriptional polymerase chain reaction), and the synthesized cDNA was used to perform TAQMAN™ real-time PCR and measure gene expression levels of a keratinocyte differentiation marker, KRT10, and a desmosome constituent factor, DSC1, and the results are shown in FIGS. 1 and 2.

[2] = tested on: DSC1 (Desmocollin-1) gene expression in normal human epidermal keratinocytes (NHEK); test: Expression level of desmosome constituent factor DSC1 in UVB-irradiated NHEK (TAQMAN real-time PCR); format: cell-based; settings: UVB 25 mJ/cm^2, 10 nM compound, harvested on fourth day of culture, versus UV-irradiated cells (FIG. 2)
Description: as §1

CC/C=C\C[C@H](O)/C=C/C=C\C=C\C=C\[C@@H](O)[C@@H](O)C/C=C\CCC(=O)O [Chemical Formula 1-1]
gene expression level of KRT10 (keratin 10) [1]: increased again | gene expression level of DSC1 [2]: increased again
